The first data set is described as follows: in vitro. The note with it: human, hela cells, % viability.
As to `Cc1ccc(-c2n[nH]c(=O)o2)cc1Br` [CBK288443], the viability at 28.5 h, 10 µM was found to be 85.9%.
In the case of `O=C(O)CCCCCNC(=S)Nc1cccc(Cl)c1` [CBK288446], the viability at 28.5 h, 10 µM was 88.1%.
As for `COc1ccc(-c2[nH]c(=S)ncc2-c2ccccc2)c(O)c1` [CBK288447], the viability at 28.5 h, 10 µM worked out at 91.5%.
With `CC1(C)N=C(c2ccc(Cl)cc2Cl)C(=S)N1` [CBK288449], the viability at 28.5 h, 10 µM was found to be 88.3%.
In the case of `CC(=O)NC(=S)Nc1ccc(Oc2ccccc2)cc1` [CBK288454], the viability at 28.5 h, 10 µM amounted to 86.6%.
Same read-out and setting: next, `O=C1NC(=O)C(c2ccccc2)(c2ccccn2)N1` (centres unmarked) [CBK288455]: 97%; `COc1ccc(CCNC(=O)C(N)=O)cc1OC` [CBK288457]: 90.9%; `O=c1[nH]nc2c(S(=O)(=O)N3CCCC3)cccn12` [CBK288460]: 85.9%.
As to `Cc1cc(N2C(=O)NS(=O)(=O)c3cccnc32)ccc1F` [CBK288461], the viability at 28.5 h, 10 µM is 90.5%.
Take `NS(=O)(=O)c1ccc(CCNCC2CCCCC2)cc1` [CBK288467]: the viability at 28.5 h, 10 µM was 92.5%.
In the case of `O=C1/C(=N\O)c2cc(Cl)ccc2N1Cc1ccccc1` [CBK288468], the viability at 28.5 h, 10 µM was 91.5%.
The same measure, in the same setting: the result for `CCOc1ccc(-c2ccc(C#N)c(=S)[nH]2)cc1` [CBK288470] reads 88.2%; that for `Cc1ccccc1C(=O)NC(=S)NCCN1CCOCC1` [CBK288475], 94.5%.
As to `COc1ccccc1CNc1ccc(S(N)(=O)=O)cc1` [CBK288476], the viability at 28.5 h, 10 µM is 92.7%.
`CC(C)(C)OC(=O)N1CCC2(CC1)N=C(c1ccccc1)C(=S)N2` [CBK288478]: the viability at 28.5 h, 10 µM turned out to be 112%.
Regarding `O=c1[nH]nc2cc(NCc3ccc(Cl)cc3)ncn12` [CBK288479], the viability at 28.5 h, 10 µM is 114%.
On to `CN(CCCNC(=O)/C=N/O)CCCC(C)(C)C` [CBK288480], for which the viability at 28.5 h, 10 µM was 110%.
Regarding `O=C1/C(=N\O)c2ccccc2N1Cc1ccccc1` [CBK288484], the viability at 28.5 h, 10 µM was 99.7%.
On to `CCc1ccc(-c2cc3c(=O)[nH]nc(S)n3n2)cc1` [CBK288485], for which the viability at 28.5 h, 10 µM was 124%.
With `S=c1[nH]cnc2c1[nH]c1ccc(Br)cc12` [CBK288487], the viability at 28.5 h, 10 µM was 102%.
Take `Cn1c(=S)[nH]c2c(-c3ccccc3)c[nH]c2c1=O` [CBK288488]: the viability at 28.5 h, 10 µM came out at 103%.
The same measure, in the same setting: the result for `CCCCC(=O)Nc1ccc(S(N)(=O)=O)cc1` [CBK288490] reads 113%; that for `CCCOc1ccc(Br)cc1/C=N/O` [CBK288491], 110%; that for `O=C(NC(=S)N1C[C@@H]2C[C@@H](C1)c1cccc(=O)n1C2)c1ccco1` [CBK288492], 110%.
As for `N#CC1C(=S)NC2=C(CCCC2)C12CCCCC2` (centres unmarked) [CBK288493], the viability at 28.5 h, 10 µM stood at 103%.
Regarding `COc1ccccc1CN1CCc2[nH]c(=S)[nH]c(=O)c2C1` [CBK288495], the viability at 28.5 h, 10 µM is 104%.
As for `S=c1cc(SCc2ccccc2Cl)nc[nH]1` [CBK288496], the viability at 28.5 h, 10 µM was found to be 95.2%.
As to `O=C(O)c1ccc(COc2cccc(/C=N\O)c2)cc1` [CBK288501], the viability at 28.5 h, 10 µM worked out at 91.9%.
As to `Cc1nnc(S)n(Cc2ccc(F)cc2)c1=O` [CBK288502], the viability at 28.5 h, 10 µM stood at 106%.
In the case of `COCc1cc2n[nH]c(=O)n2c(-c2ccccc2)n1` [CBK288507], the viability at 28.5 h, 10 µM came out at 98.3%.
As to `O=c1[nH]nc2c(Sc3cccc(F)c3)nccn12` [CBK288508], the viability at 28.5 h, 10 µM worked out at 90.4%.
In the case of `CCN(CC)CCOC(=O)NS(=O)(=O)c1ccc(Cl)cc1` [CBK288510], the viability at 28.5 h, 10 µM was determined as 97.6%.
In the case of `O=C(CCCCCN1C(=O)c2ccccc2C1=O)NO` [CBK288514], the viability at 28.5 h, 10 µM is 80.2%.
On the same count and under the same terms, next, `O=c1c([N+](=O)[O-])c[nH]c2nc(-c3ccncc3)nn12` [CBK288531N]: 87.8%; `Cc1nc(N)sc1-c1csc(Nc2ccc(Cl)cn2)n1` [CBK288532]: 61.4%; `O=[N+]([O-])c1ccc2c(c1)C(O)n1nc(-c3ccncc3)nc1S2` (centres unmarked) [CBK288533]: 94.7%.
With `Fc1ccc(Cn2nnc(-c3ccncc3)n2)c(Cl)c1` [CBK288534], the viability at 28.5 h, 10 µM is 102%.
`O=c1oc2ccccc2c2nc(-c3ccncc3)ncc12` [CBK288536]: the viability at 28.5 h, 10 µM was 108%.
As to `Nc1[nH]ncc1-c1nnc(Nc2ccc3c(c2)OCO3)o1` [CBK288537], the viability at 28.5 h, 10 µM is 85.1%.
For the molecule `O=c1[nH]cccc1-c1noc(-c2cnccn2)n1` [CBK288538], the viability at 28.5 h, 10 µM came to 90%.
Consider `CSc1nnc2n3ncnc3c3c4c(sc3n12)CCCC4C` (centres unmarked) [CBK288542], for which the viability at 28.5 h, 10 µM turned out to be 97.3%.
Turning to `O=C(Cc1nc(-c2ccncc2)n[nH]1)NC1CCCCC1` [CBK288544], the viability at 28.5 h, 10 µM came to 110%.
`Cc1nc(-c2ccncc2)c2c(C)nn(-c3ccc(F)cc3)c2n1` [CBK288545]: the viability at 28.5 h, 10 µM stood at 89.2%.
Consider `Nc1ncnc2nc(-c3ccncc3)nn12` [CBK288550], for which the viability at 28.5 h, 10 µM is 102%.
On to `Cc1c(-c2ccnc(N3CCOCC3)n2)cnc2nc(-c3ccncc3)nn12` [CBK288551], for which the viability at 28.5 h, 10 µM was 98.6%.
`CC(=O)c1c(C)nc2nc(-c3ccncc3)nn2c1C` [CBK288552]: the viability at 28.5 h, 10 µM was determined as 106%.
Consider `CCN1CCCC1CNC(=O)C1(O)c2ccccc2NC(=O)N1c1ccccc1` (centres unmarked) [CBK288554], for which the viability at 28.5 h, 10 µM came to 90.5%.
On to `CCNc1n[nH]c(N)c1-c1nc(-c2ccc(OC)cc2)no1` [CBK288557], for which the viability at 28.5 h, 10 µM amounted to 94.2%.
Same read-out and setting: the result for `c1ccc2c(c1)OCC(c1nn3c(-c4ccncc4)nnc3s1)O2` (centres unmarked) [CBK288560] reads 107%.
In the case of `CNc1nc(N(C)C)nc(-n2cnc(SCCOc3ccccc3C)n2)n1` [CBK288564], the viability at 28.5 h, 10 µM worked out at 92.4%.
On the same count and under the same terms, the result for `Cc1ccc(N2CC(c3nc(-c4ccncc4)no3)CC2=O)cc1Cl` (centres unmarked) [CBK288582] reads 109%.
Take `O=C(NCc1ccc2c(c1)CCN2C(=O)c1ccncc1)c1cccnc1` [CBK288585]: the viability at 28.5 h, 10 µM worked out at 91.4%.
Still for that read-out and setting: next, `O=C(NCc1ccc2c(c1)CCN2C(=O)c1ccncc1)c1cccc(F)c1` [CBK288586]: 102%; `Cc1cc(N2CCOCC2)nc2ccc(NC(=O)c3ccncc3)cc12` [CBK288587]: 99.3%.
Regarding `Clc1ccc(Nc2nnc(-c3[nH]ncc3NCc3ccncc3)o2)cc1` [CBK288588], the viability at 28.5 h, 10 µM is 99%.
As for `COCCNC(=O)C1(O)c2ccccc2NC(=O)N1c1cccc(OC)c1` (centres unmarked) [CBK288589], the viability at 28.5 h, 10 µM was 110%.
On the same count and under the same terms, next, `COc1cc(Nc2cc(-n3nc(C)cc3C)ncn2)cc(OC)c1OC` [CBK288594]: 93.2%.
Same read-out and setting: the result for `CCOc1ccccc1-c1noc(-c2nn(-c3ccc(C)cc3)ccc2=O)n1` [CBK288597] reads 95.7%.
`O=C(NCCc1nc2cccnc2n1-c1ccccc1)c1ccncc1` [CBK288599]: the viability at 28.5 h, 10 µM stood at 90.7%.
The same measure, in the same setting: next, `Fc1cc(F)cc(-c2nnc(Cc3nc(-c4ccncc4)no3)o2)c1` [CBK288602]: 98.6%; `CCC(=O)Nc1ccc(-n2cnc(C(=O)NCc3cccnc3)c2)nc1` [CBK288603]: 115%.

Still in this data set, the particulars now being: human, hela cells, % viability, bulk resorufin, single well.
With `NC(=O)C(=O)c1cn(Cc2ccccc2)c2ccccc12` [CBK288473], the viability at 28.5 h, 10 µM is 96.2%.

These data come from paper PMC12040169 (PLOS Biology, 2025).
